Entries after “also recorded” stand apart in the source; their conditions may differ. One block for each compound: values may come before it.
How the values were obtained:
ovalbumin = biological target: T1, ovalbumin (Gallus gallus, UniProt P01012); experiment: Transmission electron microscopy of ovalbumin heated in the presence of small compounds; set-up: species or system chicken; settings: 1 mg/ml ovalbumin heated with 1 mg/ml compound
T1 construct: purchased Sigma A5503
T1 sequence (P01012 1-386): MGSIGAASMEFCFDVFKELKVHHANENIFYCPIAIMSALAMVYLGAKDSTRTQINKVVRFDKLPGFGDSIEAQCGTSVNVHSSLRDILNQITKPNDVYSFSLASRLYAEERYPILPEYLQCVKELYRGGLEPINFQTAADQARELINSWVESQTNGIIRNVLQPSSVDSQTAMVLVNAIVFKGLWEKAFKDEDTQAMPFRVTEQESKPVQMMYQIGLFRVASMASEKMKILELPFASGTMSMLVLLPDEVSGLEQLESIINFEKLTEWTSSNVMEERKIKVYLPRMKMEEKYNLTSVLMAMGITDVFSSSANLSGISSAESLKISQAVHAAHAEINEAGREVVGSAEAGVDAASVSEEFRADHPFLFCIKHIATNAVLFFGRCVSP
Protocol: For TEM analyses grids were prepared according to standard procedures. Ovalbumin samples at 1 mg/ml were applied to 100-mesh copper grids with carbon coated Formvar (Merck, Germany), and subsequently washed with PBS and H2O. Grids were applied to droplets of 2% (m/v) methylcellulose with 0.4% (m/v) uranylacetate pH 4. After a 2-minutes incubation grids were dried on a filter. Images were recorded at 80 kV, at suitable magnifications on a JEM-1200EX electron microscope (JEOL, Japan).

tPA/plasminogen [1] = biological target: T2, tPA/plasminogen (Homo sapiens, UniProt P00750); experiment: tPA/plasminogen activation by pre-formed misfolded OVA in the presence of compounds; format: biochemical; settings: 80-fold or 160-fold diluted compound and misfolded OVA stocks of 1 mg/ml
T2 construct: purchased Boehringer Ingelheim Actilyse
Protocol: […] Negative control was buffer without OVA. […] In addition, it was assessed whether the compounds interfere with absorbance readings at 405 nm, with converted chromogenic substrate. […] The yellow solution is divided over wells of an ELISA plate. […] Signals are compared and related to the control.

tPA = tPA (Homo sapiens, UniProt P00750); experiment: tPA serine protease activity with OVA heated in the presence of compounds (substrate S-2765); format: biochemical; set-up: purchased Boehringer Ingelheim Actilyse; settings: OVA heated with 1 mg/ml compound, 80-, 160- or 320-fold diluted, 100 nM tPA
Protocol: For this purpose, the influence of the compounds on heat-denaturation of OVA was analyzed (see above: Thioflavin T fluorescence measurements). Heated OVA at 1 mg/ml in PBS in the presence or absence of 1 mg/ml of the twelve compounds listed in Table 7 in PBS/DMSO (final DMSO concentration 1%) was used 80-fold or 160-fold or 320-fold diluted (final heated OVA concentration and compound concentration was 12.5 or 6.3 or 3.1 μg/ml; final DMSO concentration was 0.013% and 0.006% and 0.003%).

[2] = biological target: T3, glycated haemoglobin (Hb-AGE) (Homo sapiens, UniProt P68871+P69905); experiment: ELISA binding of IgIV to immobilized Hb-AGE and inhibition studies; settings: 15 μg/ml IgIV, concentration series of competitor
T3 construct: purchased Sigma-Aldrich H7379
Protocol: Binding of IgIV was determined using an enzyme linked immunosorbent assay (ELISA) set-up. For this purpose 50 μl/well of potential ligands at indicated concentrations or coat buffer only for control and background measurement purposes, were coated overnight at 4° C., with motion, in 50 mM NaHCO3 pH 9.6. Glycated albumin and Hb (BSA-AGE and Hb-AGE), control BSA and control Hb were coated at 5 μg/ml. The BSA and Hb controls were prepared freshly by dissolving lyophilized proteins at 1 mg/ml in PBS upon resuspending by pipetting, followed by a 30′ period at the roller bank, at room temperature. The protein solutions were centrifuged for 10′ at 16,000*g and diluted in coat buffer. Coat controls were performed with anti-glycated protein antibody, anti-albumin antibody, anti-Hb antibody. The alkaline phosphatase-conjugated anti-human Ig antibodies were controlled by coating the IgIV's and overlaying them the secondary antibodies. After coating the plates were washed twice with 50 mM Tris-HCl pH 7.3, 150 mM NaCl, 0.1% v/v Tween20, and blocked with 175 μl/well Blocking reagent (Roche Diagnostics, Almere, The Netherlands; catalogue number 11112589001), for 1 h at room temperature, with motion. Plates were washed twice and incubated in triplicate with indicated antibodies dilution series, plasma dilution series or controls, including binding buffer only, in the absence or presence of putative inhibitors, in binding buffer; PBS/0.1% v/v Tween20, at 50 μl/well, for 1 h at room temperature, with constant motion. After four wash cycles, secondary antibodies were added to the wells, 50 μl/well, for 45′ at room temperature, with motion. RAMPO and SWARPO were used at 2000 times dilution, goat anti-human IgG antibodies were diluted 3000 times, goat anti-human IgM antibodies were diluted 1000 times. After 5 washes with wash buffer followed by two washes with PBS, binding of antibodies was assessed. […] After 5′ absorbance was read at 405 nm. […] After 5′ absorbance was read at 490 nm. […] Triplicates were averaged and standard deviations calculated. […]

Aβ = biological target: T4, Aβ (Homo sapiens, UniProt P05067, E693Q); experiment: Binding of Aβ from solution to immobilized small compounds; settings: coat 100 μg/ml
T4 construct: Lyophilized human amyloid-β(1-40) with E22Q mutation ‘Dutch type’; purchased Peptide facility, Dutch Cancer Institute, Amsterdam; host or cells: synthetic peptide
Protocol: (§1) To test the ability of the twelve selected compounds (see Table 7) to bind to misfolded proteins, […] Greiner Microlon high binding plates, Nunc amino Immobilizer plates and Nunc Maxisorp plates. Compounds were coated in 100 mM NaHCO3 pH 9.6, 50 μl/well, 1 h at room temperature with agitation. As a control, wells were coated with buffer only. After blocking of the plates, wells were overlayed with solutions of 0.1/1/10 μg/ml Hb-AGE or 10/100 μg/ml Aβ, in binding buffer (PBS/0.1% Tween20). After washing, binding of Hb-AGE was assessed by overlaying wells with 1 μg/ml hybridoma antibody 4B5, which binds to glycations(^2), followed by RAMPO. Binding of Aβ was visualized using 500× diluted anti-Aβ antibodies (mouse antibody beta-amyloid Clone 6F/3D #M0872, lot 00003503, DAKOCytomation; β-amyloid (H-43) SC-9129, 200 μg/ml rabbit polyclonal IgG, Santa Cruz Biotechnology) and RAMPO/SWARPO in a 1:1 ratio. Finally, wells were overlayed with OPD/H2O2 solution, and H2SO4, before absorbance readings at 490 nm.

Hb-AGE [3] = biological target: T5, Hb-AGE (Homo sapiens, UniProt P68871+P69905); experiment: ELISA binding of tPA to immobilized Hb-AGE after pre-incubation with compounds; settings: Hb-AGE first overlayed with compound (concentration series), then tPA
T5 construct: purchased Sigma-Aldrich H7379
Protocol: Compounds were now diluted 10× in PBS/0.1% Tween20 (500 μg/ml compound). […] With the selection, similar binding assays are performed with misfolded OVA and Aβ. Finally, concentration series of the selected compounds are used in the binding studies.

heat-denatured ovalbumin = biological target: T6, heat-denatured ovalbumin (Gallus gallus, UniProt P01012); experiment: Thioflavin T fluorescence of ovalbumin and small compounds; set-up: species or system chicken; settings: 1 mg/ml compound, 1 mg/ml OVA
T6 construct: purchased Sigma A5503
T6 sequence (P01012 1-386): T1 sequence (P01012 1-386)
Protocol: To establish the enhancement of Thioflavin T fluorescence by ovalbumin preparations, 90 μl of 25 μM ThT-solution in 50 mM Glycine buffer (pH 9.0) was added to 10 μl sample in duplicate wells of black 96-wells plates. Heat-denatured ovalbumin at 1 mg/ml in PBS with no addition, DMSO at a final concentration of 1% v/v, or 1 mg/ml of the compounds listed in Table 7, was used. Compound stocks are 100 mg/ml in DMSO. In addition, ovalbumin at 1 mg/ml with the same additions was first heat denatured and subsequently used in the fluorescence assay. Heat denaturation was according to the protocol given above. Fluorescence of duplicates was measured on a Thermo Fluoroskan Ascent 2.5, at 435 nm excitation and 485 nm emission wavelengths.

[4] = system: misfolded proteins (Hb-AGE, Aβ); experiment: Binding of misfolded proteins from solution to immobilized small compounds (overall); settings: compounds coated on ELISA plates, Hb-AGE or Aβ in solution
Protocol: To test the ability of the twelve selected compounds (see Table 7) to bind to misfolded proteins, the compounds were immobilized at 10/100/1000 μg/ml in the wells of 96-wells Greiner Microlon high binding plates, Nunc amino Immobilizer plates and Nunc Maxisorp plates. Compounds were coated in 100 mM NaHCO3 pH 9.6, 50 μl/well, 1 h at room temperature with agitation. As a control, wells were coated with buffer only. After blocking of the plates, wells were overlayed with solutions of 0.1/1/10 μg/ml Hb-AGE or 10/100 μg/ml Aβ, in binding buffer (PBS/0.1% Tween20). After washing, binding of Hb-AGE was assessed by overlaying wells with 1 μg/ml hybridoma antibody 4B5, which binds to glycations(^2), followed by RAMPO. Binding of Aβ was visualized using 500× diluted anti-Aβ antibodies (mouse antibody beta-amyloid Clone 6F/3D #M0872, lot 00003503, DAKOCytomation; β-amyloid (H-43) SC-9129, 200 μg/ml rabbit polyclonal IgG, Santa Cruz Biotechnology) and RAMPO/SWARPO in a 1:1 ratio. Finally, wells were overlayed with OPD/H2O2 solution, and H2SO4, before absorbance readings at 490 nm.

Hb-AGE [5] = biological target: T5, Hb-AGE; experiment: Binding of Hb-AGE from solution to immobilized small compounds; settings: coat 100 μg/ml
Protocol: as §1

tPA/plasminogen [6] = biological target: T2, tPA/plasminogen; experiment: tPA/plasminogen activation by OVA heated in the presence of compounds (substrate PNAPEP1751); format: biochemical; settings: 25 μg/ml OVA, 25 μg/ml compound, […] DMSO
Protocol: Heated OVA, either in PBS/1% DMSO (positive control), or in the same buffer in the presence of 1 mg/ml of the compounds, was used 40-fold diluted in the assay. Negative control was buffer without OVA. […] In addition, it was assessed whether the compounds interfere with absorbance readings at 405 nm, with converted chromogenic substrate. […] The yellow solution is divided over wells of an ELISA plate. […] Signals are compared and related to the control.

T5 sequence (P69905 2-142 limits assumed): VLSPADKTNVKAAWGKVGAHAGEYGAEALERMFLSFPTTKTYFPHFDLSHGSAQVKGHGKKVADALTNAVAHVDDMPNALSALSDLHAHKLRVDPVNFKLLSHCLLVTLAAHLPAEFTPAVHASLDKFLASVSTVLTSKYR
T5 sequence (P68871 2-147 limits assumed): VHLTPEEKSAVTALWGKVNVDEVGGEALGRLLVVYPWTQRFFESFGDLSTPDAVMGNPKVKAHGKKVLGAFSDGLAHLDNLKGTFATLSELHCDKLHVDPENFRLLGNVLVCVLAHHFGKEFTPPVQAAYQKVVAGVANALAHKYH
T2 sequence (P00750 36-562): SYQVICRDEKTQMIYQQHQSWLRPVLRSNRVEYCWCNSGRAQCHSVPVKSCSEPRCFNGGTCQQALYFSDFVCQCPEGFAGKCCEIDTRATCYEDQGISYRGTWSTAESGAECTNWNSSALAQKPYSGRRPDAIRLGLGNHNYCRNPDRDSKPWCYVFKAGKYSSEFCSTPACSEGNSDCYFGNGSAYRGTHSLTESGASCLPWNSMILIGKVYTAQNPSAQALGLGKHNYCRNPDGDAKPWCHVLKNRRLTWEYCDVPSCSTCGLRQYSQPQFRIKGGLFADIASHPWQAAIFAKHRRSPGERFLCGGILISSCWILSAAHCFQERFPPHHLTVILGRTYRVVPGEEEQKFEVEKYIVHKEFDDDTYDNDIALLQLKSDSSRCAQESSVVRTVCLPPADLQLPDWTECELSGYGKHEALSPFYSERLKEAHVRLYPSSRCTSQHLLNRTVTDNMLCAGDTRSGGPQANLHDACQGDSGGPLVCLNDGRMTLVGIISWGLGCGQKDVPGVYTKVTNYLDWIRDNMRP
Sequence of tPA (P00750 36-562): as above
T3 sequence (P69905 2-142 limits assumed): as the sequence (P69905 2-142 limits assumed) above
T3 sequence (P68871 2-147 limits assumed): as the sequence (P68871 2-147 limits assumed) above

Compound: Bucharaine [compound 8]
- appearance of ovalbumin heated in the presence of compound on TEM image (ovalbumin): no large OVA aggregates are seen
- influence on tPA/plasminogen activation by pre-formed misfolded OVA (tPA/plasminogen [1]): potent inhibitors of misfolded OVA-triggered plasmin generation; also recorded: fully abolish plasmin activity
- influence on tPA protease activity of OVA heated in the presence of compound (tPA): induces further stimulation of tPA by OVA; also recorded: induce increased tPA activity when combined with ovalbumin before heat-denaturation

- influence on binding of IgIV to immobilized Hb-AGE [2]: enhance the binding of IgIV
Compound: Thioflavin S

Compound: Cc1c(C(=O)O)c(O)cc2c1C(=O)c1c(O)c([C@H]3O[C@H](CO)[C@@H](O)[C@H](O)[C@H]3O)c(O)c(O)c1C2=O [compound 19]
- appearance of ovalbumin heated in the presence of compound on TEM image (ovalbumin): Background as in Control, but less aggregated. Also
- Signal (a.u.) (Aβ; Nunc Maxisorp, Aβ 100 μg/ml): 0.08 a.u.
- Signal (a.u.) (Aβ; Nunc amino Immobilizer, Aβ 10 μg/ml): 0.03 a.u.
- Signal (a.u.) (Aβ; Nunc amino Immobilizer, Aβ 100 μg/ml): 0.04 a.u.
- influence on tPA binding to immobilized Hb-AGE (Hb-AGE [3]): Stimulated tPA binding to immobilized misfolded protein (Hb-
- influence on tPA/plasminogen activation by pre-formed misfolded OVA (tPA/plasminogen [1]): Delayed tPA/plasminogen activation by misfolded OVA
- influence on Thioflavin T fluorescence with misfolded OVA (heat-denatured ovalbumin): Inhibition on Thioflavin T fluorescence with misfolded OVA
- capture of misfolded protein from solution by immobilized compound [4]: Capture of misfolded protein from solution
- Signal (a.u.) (Hb-AGE [5]; Nunc Maxisorp, Hb-AGE 10 μg/ml): 0.16 a.u.
- Signal (a.u.) (Hb-AGE [5]; Nunc amino Immobilizer, Hb-AGE 1 μg/ml): 0.42 a.u.
- influence on tPA/plasminogen activation by OVA pre-heated in the presence of compound (tPA/plasminogen [6]): Inhibition of tPA/plasminogen activation by OVA pre-heated
